According to publication PMC8709454, “Enhanced Skin Delivery of Therapeutic Peptides Using Spicule-Based Topical Delivery Systems” (Pharmaceutics, 2021):

Test system: imiquimod-induced psoriatic mice
Conditions: subcutaneous injection of CysA (3 mg/mL, 100 μL, 7 times, day 1 to day 7); psoriasis mice; HPLC; mean ± SD
Procedure: BALB/c mice were used to develop the psoriatic model. […] The back hair of the mice was shaved.
Briefly, blood (500 μL) was collected from the mice orbit and mixed with 4 mL ether. […] Mice skin, liver, and kidney samples were collected and weighed. […] In addition, the mice skin in the treatment area and the non-treated area was cryo-sectioned and stained with hematoxylin and eosin. The epidermal thickness of each skin sample was measured at three random sites with ImageJ software (V1.8.0).

cyclosporine A [CysA]
drug accumulation in mice kidney: 64.07 ± 10.25 (μg/g)/mg
